The record followed here is patent publication US9822138B2, “Antiviral beta-amino acid ester phosphodiamide compounds” (Merck Sharp & Dohme Corp., priority 2015, dated 2017).

The term IC50 denotes the concentration at which inhibition is half-maximal.

Where two headings read alike, the source gives them in different places.

In this assay the test system is HIV-1 (H9/IIIB strain). The assay can be described thus: microbe, parasite or virus in culture. The assay is classed as cell-based. As to the method: Assessing Antiviral Potency in a Multiple Round HIV-1 Infection Assay (Viking Assay)
The antiviral activity of the tenofovir prodrugs of the Examples herein was assessed in an assay that measures the rate of replication of HIV in cell culture, termed the Viking assay (Viral KINetics in Green cells) and performed as follows. HIV-1 replication was monitored using MT4-gag-GFP clone D3 (hereafter designated MT4-GFP), which are MT-4 cells modified to harbor a GFP reporter gene, the expression of which is dependent on the HIV-1 expressed proteins tat and rev. Productive infection of an MT4-GFP cell with HIV-1 results in GFP expression approximately 24 h post-infection. MT4-GFP cells were maintained at 37° C./5% CO2/90% relative humidity in RPMI 1640 supplemented with 10% fetal bovine serum, 100 U/ml penicillin/streptomycin, and 400 μg/ml G418 to maintain the reporter gene. For infections, MT4-GFP cells were placed in the same medium lacking G418 and infected overnight with HIV-1 (H9/IIIB strain) virus at an approximate multiplicity of infection of 0.01 in the same incubation conditions. Cells were then washed and re-suspended in either RPMI 1640 supplemented with 10% or 50% normal human serum (NHS) at 1.6×10^5 cells/mL (10% NHS or 50% NHS, respectively). Compound plates were prepared by dispensing compounds dissolved in DMSO into wells of 384 well poly-D-lysine-coated plates (0.2 μl/well) using an ECHO acoustic dispenser. Each compound was tested in a 10-point serial 3-fold dilution (typical final concentrations: 8.4 μM-0.42 nM). Controls included no inhibitor (DMSO only) and a combination of three antiviral agents (efavirenz, indinavir, an in-house integrase strand transfer inhibitor at final concentrations of 4 μM each). Cells were added ([…]) to compound plates and the infected cells were maintained at 37° C./5% CO2/90% relative humidity.
Infected cells were quantified at two time points, ˜48 h and ˜72 h post-infection, by counting the number of green cells in each well using an Acumen eX3 scanner. […] Inhibition of R0 is calculated for each well, and IC50s determined by non-linear 4-parameter curve fitting.

Setting [1] is: 10% normal human serum, MT4-GFP cells infected with HIV-1 H9/IIIB, inhibition of reproductive ratio R0, read-out: Viking, IC50 (10% NHS).
Where [2] appears, read: 50% normal human serum, MT4-GFP cells infected with HIV-1 H9/IIIB, inhibition of reproductive ratio R0, read-out: Viking, IC50 (50% NHS).
Where [3] appears, read: Human immunodeficiency virus 1, IIIB, 10% normal human serum, MT4-GFP cells infected with HIV-1 H9/IIIB, inhibition of reproductive ratio R0, read-out: Viking, IC50 (10% NHS).
The mark [4] stands for this setting: Human immunodeficiency virus 1, IIIB, 50% normal human serum, MT4-GFP cells infected with HIV-1 H9/IIIB, inhibition of reproductive ratio R0, read-out: Viking, IC50 (50% NHS).
[5] abbreviates: Human immunodeficiency virus 1, 10% normal human serum, MT4-GFP cells infected with HIV-1 H9/IIIB, inhibition of reproductive ratio R0, read-out: Viking, IC50 (10% NHS).
Where [6] appears, read: Human immunodeficiency virus 1, 50% normal human serum, MT4-GFP cells infected with HIV-1 H9/IIIB, inhibition of reproductive ratio R0, read-out: Viking, IC50 (50% NHS).

As to `CC(C)OC(=O)CCNP(=O)(CO[C@H](C)Cn1cnc2c(N)ncnc21)N[C@H](C)C(=O)OC1CCC1` (single isomer, unassigned) [Example 23A], the IC50 by setting is: under setting [1], over 8400 nM; under setting [2], over 8400 nM.

Consider `CCCCCCOC(=O)C(C)(C)NP(=O)(CO[C@H](C)Cn1cnc2c(N)ncnc21)N[C@@H](CC(=O)OC(C)C)C(C)C` (single isomer, unassigned) [Example 28A], for which the 50% inhibitory concentration (IC50) stood at 19.1 nM under setting [1] and 58.5 nM under setting [2]. Turning to `CC(C)OC(=O)[C@@H](C)CNP(=O)(CO[C@H](C)Cn1cnc2c(N)ncnc21)N[C@@H](C)C(=O)OC1CCCCC1` (single isomer, unassigned) [Example 13B], the IC50 reads like this: under setting [1], 34.2 nM; under setting [2], 175 nM. With `CC(C)OC(=O)C[C@H](C)NP(=O)(CO[C@H](C)Cn1cnc2c(N)ncnc21)N[C@@H](C)CC(=O)OC(C)C` [Example 5, 1-methylethyl (6S,10S)-8-{[(1R)-2-(6-amino-9H-purin-9-yl)-1-methylethoxy]methyl}-2,6,10-trimethyl-4-oxo-3-oxa-7,9-diaza-8-phosphadodecan-12-oate 8-oxide], the IC50 reads like this: under setting [3], over 8400 nM; under setting [4], over 8400 nM. For `CC(C)OC(=O)C[C@H](C)NP(=O)(CO[C@H](C)Cn1cnc2c(N)ncnc21)N[C@@H](C)C(=O)OC(C)C` (single isomer, unassigned) [Example 8B], the IC50 stood at 439 nM under setting [1] and 531 nM under setting [2].

Take `CC(C)OC(=O)C[C@H](C)NP(=O)(CO[C@H](C)Cn1cnc2c(N)ncnc21)N[C@H](C)C(=O)OC1CCC1` (single isomer, unassigned) [Example 19B]: the IC50 is 3790 nM under setting [1] and over 8400 nM under setting [2].

On to `CCCCCOC(=O)C(C)(C)N[P@@](=O)(CO[C@H](C)Cn1cnc2c(N)ncnc21)N[C@@H](CC(=O)OC(C)C)C(C)C` [Example 24B], for which the IC50 under setting [5] was found to be 28.9 nM and the half-maximal inhibitory concentration (IC50) under setting [6] was 170 nM.

As for `CC(C)OC(=O)[C@@H](C)CNP(=O)(CO[C@H](C)Cn1cnc2c(N)ncnc21)N[C@@H](C)C(=O)OC1CCCC1` (single isomer, unassigned) [Example 11A], the IC50 was found to be 21.5 nM under setting [3] and 104 nM under setting [4]. In the case of `CC(C)OC(=O)C[C@@H](C)NP(=O)(CO[C@H](C)Cn1cnc2c(N)ncnc21)N[C@H](C)CC(=O)OC(C)C` [Example 2, 1-methylethyl (6R,10R)-8-{[(1R)-2-(6-amino-9H-purin-9-yl)-1-methylethoxy]methyl}-2,6,10-trimethyl-4-oxo-3-oxa-7,9-diaza-8-phosphadodecan-12-oate 8-oxide], the IC50 was over 8400 nM under setting [3] and over 8400 nM under setting [4].

Turning to `CC(C)OC(=O)CCNP(=O)(CO[C@H](C)Cn1cnc2c(N)ncnc21)N[C@@H](C)C(=O)OC(C)C` (single isomer, unassigned) [Example 7B], the half-inhibitory concentration (IC50) by setting is: under setting [5], 378 nM; under setting [6], 393 nM. Regarding `CC(C)OC(=O)[C@@H](C)CNP(=O)(CO[C@H](C)Cn1cnc2c(N)ncnc21)N[C@@H](C)C(=O)OC1CCC1` (single isomer, unassigned) [Example 12A], the IC50 came to 41.7 nM under setting [3] and 119 nM under setting [4]. Turning to `CC(C)OC(=O)CCNP(=O)(CO[C@H](C)Cn1cnc2c(N)ncnc21)NCCC(=O)OC(C)C` [Example 1, 1-methylethyl 8-{[(1R)-2-(6-amino-9H-purin-9-yl)-1-methylethoxy]methyl}-2-methyl-4-oxo-3-oxa-7,9-diaza-8-phosphadodecan-12-oate 8-oxide], the IC50 by setting is: (Human immunodeficiency virus 1, IIIB, read-out: Viking, IC50 (10% NHS)) over 8400 nM; (Human immunodeficiency virus 1, IIIB, read-out: Viking, IC50 (50% NHS)) over 8400 nM. `CC(C)OC(=O)[C@@H](C)CNP(=O)(CO[C@H](C)Cn1cnc2c(N)ncnc21)N[C@H](C)C(=O)OC1CCC1` (single isomer, unassigned) [Example 20A]: the IC50 was found to be 859 nM under setting [1] and 4100 nM under setting [2]. `CCCCCOC(=O)C(C)(C)NP(=O)(CO[C@H](C)Cn1cnc2c(N)ncnc21)N[C@@H](C)CC(=O)OC(C)C` (single isomer, unassigned) [Example 26A]: the 50% inhibitory concentration (IC50) under setting [1] was determined as 23.3 nM and the IC50 under setting [2] worked out at 116 nM. Taken in the same sequence, the figures for `CC(C)OC(=O)C[C@@H](C)NP(=O)(CO[C@H](C)Cn1cnc2c(N)ncnc21)N[C@@H](C)C(=O)OC(C)C` (single isomer, unassigned) [Example 9B] were 378 nM and 800 nM. As to `CCCCOC(=O)[C@H](C)NP(=O)(CO[C@H](C)Cn1cnc2c(N)ncnc21)NC[C@H](C)C(=O)OC(C)C` (single isomer, unassigned) [Example 15A], the IC50 under setting [3] was 19.6 nM and the IC50 under setting [4] is 146 nM. As to `CC(C)OC(=O)C[C@@H](C)NP(=O)(CO[C@H](C)Cn1cnc2c(N)ncnc21)N[C@H](C)C(=O)OC1CCC1` (some centres unmarked) [Example 18B], the IC50 by setting is: under setting [5], 3810 nM; under setting [6], 7120 nM. Regarding `CC(C)OC(=O)[C@H](C)CNP(=O)(CO[C@H](C)Cn1cnc2c(N)ncnc21)NC[C@@H](C)C(=O)OC(C)C` [Example 4, 1-methylethyl (5R,11R)-8-{[(1R)-2-(6-amino-9H-purin-9-yl)-1-methylethoxy]methyl}-2,5,11-trimethyl-4-oxo-3-oxa-7,9-diaza-8-phosphadodecan-12-oate 8-oxide], the IC50 was 6460 nM under setting [3] and over 8400 nM under setting [4]. For the molecule `CC(C)OC(=O)[C@@H](C)CNP(=O)(CO[C@H](C)Cn1cnc2c(N)ncnc21)N[C@H](C)C(=O)OC1CCCCC1` (single isomer, unassigned) [Example 21B], the IC50 under setting [1] was 270 nM and the IC50 under setting [2] stood at 836 nM.

Turning to `CC(C)OC(=O)[C@@H](C)CNP(=O)(CO[C@H](C)Cn1cnc2c(N)ncnc21)N[C@H](C)C(=O)OC1CCCC1` (single isomer, unassigned) [Example 22A], the IC50 is 400 nM under setting [1] and 480 nM under setting [4]. Turning to `CC(C)OC(=O)[C@@H](C)CNP(=O)(CO[C@H](C)Cn1cnc2c(N)ncnc21)NC[C@H](C)C(=O)OC(C)C` [Example 3, 1-methylethyl (5S,11S)-8-{[(1R)-2-(6-amino-9H-purin-9-yl)-1-methylethoxy]methyl}-2,5,11-trimethyl-4-oxo-3-oxa-7,9-diaza-8-phosphadodecan-12-oate 8-oxide], the IC50 is 7340 nM under setting [3] and over 8400 nM under setting [4]. `CC(C)OC(=O)[C@H](C)NP(=O)(CO[C@H](C)Cn1cnc2c(N)ncnc21)NC[C@H](C)C(=O)OC(C)C` (some centres unmarked) [Example 6B]: the IC50 is 258 nM under setting [5] and 494 nM under setting [6].

On to `CC(C)OC(=O)[C@H](C)CNP(=O)(CO[C@H](C)Cn1cnc2c(N)ncnc21)N[C@@H](C)C(=O)OC(C)C` (single isomer, unassigned) [Example 10B], for which the IC50 was 435 nM under setting [1] and 908 nM under setting [2]. For `CC(C)OC(=O)[C@@H](C)CNP(=O)(CO[C@H](C)Cn1cnc2c(N)ncnc21)N[C@H](C)C(=O)OC1CCCCC1` (single isomer, unassigned) [Example 21A], under setting [1], the IC50 came to 1460 nM.
